Reference: patent US20260325685A1, “Radiopharmaceutical Compositions Targeting Carbonic Anhydrase IX and Uses Thereof” (RayzeBio, Inc., priority 2023, published 2026)
Read-outs that look alike come from different tables or passages of the source.

Experiments:
human CA-IX = target: T1, human CA-IX (Homo sapiens, UniProt Q16790); assay: Surface Plasmon Resonance (SPR) binding kinetics to recombinant human CA-IX (Biacore 8K, single-cycle kinetics, 1:1 binding model)
T1 construct: purchased Acro CA9-H82E3
Method in brief: (§1)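 Streptavidin capture, 1200-1800 RU; capture injection 180 s (CA-IX) vs 75 s (CA-XII). Analyte 100-0.39 nM, 9 conc., PBS-P+ pH 7.4 + 1% DMSO, 25° C. On 120 s, off 1200 s; ka/kd after reference subtraction and DMSO correction.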

human CA-XII = target: T2, human CA-XII (Homo sapiens, UniProt O43570); assay: Surface Plasmon Resonance (SPR) binding kinetics to recombinant human CA-XII (Biacore 8K, single-cycle kinetics, 1:1 binding model)
T2 construct: purchased Creative BioMart CA12-261H
T2 sequence (O43570 25-354): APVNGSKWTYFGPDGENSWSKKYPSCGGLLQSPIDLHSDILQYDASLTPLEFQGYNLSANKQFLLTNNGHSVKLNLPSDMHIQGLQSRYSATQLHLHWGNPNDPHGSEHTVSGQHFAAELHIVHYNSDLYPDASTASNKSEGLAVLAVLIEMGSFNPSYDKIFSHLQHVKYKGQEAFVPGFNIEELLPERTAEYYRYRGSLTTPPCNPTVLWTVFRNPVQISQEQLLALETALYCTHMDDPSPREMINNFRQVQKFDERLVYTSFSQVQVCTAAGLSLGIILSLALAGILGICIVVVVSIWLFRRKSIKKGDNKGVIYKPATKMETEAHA
Method in brief: as §1

[1] = Chelated Metal: Lu-175; SPR, 25° C., pH 7.4; read-out: CAIX KD
[2] = Chelated Metal: Lu-175, 25° C., pH 7.4, read-out: CAXII KD

## CC(CCC(=O)N1CCC[C@H]1C(=O)N[C@@H](CC(=O)N1CCN(C(=O)CN2CCN(CC(=O)O)CCN(CC(=O)O)CCN(CC(=O)O)CC2)C[C@@H]1C(=O)NCCn1cc(C23CC(C(=O)Nc4nnc(S(N)(=O)=O)s4)(C2)C3)nn1)C(=O)O)(c1ccc(O)cc1)c1ccc(O)cc1.[Lu+3] [Compound 108]
Human CA-IX; read-out: CAIX KD; Chelated Metal: Lu-175; SPR, 25° C., pH 7.4
  Kd: 1 to 2.5 nM
Human CA-XII; read-out: CAXII KD, Chelated Metal: Lu-175, 25° C., pH 7.4
  Kd: > 10 nM

## NS(=O)(=O)c1nnc(NC(=O)C23CC(c4cn(CCNC(=O)[C@@H]5CN(C(=O)CN6CCN(CC(=O)O)CCN(CC(=O)O)CCN(CC(=O)O)CC6)CCN5C(=O)C[C@H](NC(=O)C[C@H](NC(=O)c5ccc(C6CC6)cc5)C(=O)O)C(=O)O)nn4)(C2)C3)s1.[Lu+3] [Compound 109.1]
Human CA-IX; [1]
  Kd: < 1 nM
Human CA-XII; [2]
  Kd: 2.5 to 10 nM

## NS(=O)(=O)c1nnc(NC(=O)C23CC(c4cn(CCNC(=O)[C@@H]5CN(C(=O)CN6CCN(CC(=O)O)CCN(CC(=O)O)CCN(CC(=O)O)CC6)CCN5C(=O)C[C@H](NC(=O)C[C@H](NC(=O)CCC5CCCCCC5)C(=O)O)C(=O)O)nn4)(C2)C3)s1.[Lu+3] [Compound 109.2]
Human CA-IX; [1]
  Kd: < 1 nM
Human CA-XII; [2]
  Kd: 1 to 2.5 nM

## Cc1c(C(=O)N[C@@H](CC(=O)N[C@@H](CC(=O)N2CCN(C(=O)CN3CCN(CC(=O)O)CCN(CC(=O)O)CCN(CC(=O)O)CC3)C[C@H]2C(=O)NCCn2cc(C34CC(C(=O)Nc5nnc(S(N)(=O)=O)s5)(C3)C4)nn2)C(=O)O)C(=O)O)n[nH]c1C(F)(F)F.[Lu+3] [Compound 109.3]
Human CA-IX; [1]
  Kd: < 1 nM
Human CA-XII; [2]
  Kd: < 1 nM

## NS(=O)(=O)c1nnc(NC(=O)C23CC(c4cn(CCNC(=O)[C@@H]5CN(C(=O)CN6CCN(CC(=O)O)CCN(CC(=O)O)CCN(CC(=O)O)CC6)CCN5C(=O)C[C@H](NC(=O)C[C@H](NC(=O)c5ccc(C6CC6)nn5)C(=O)O)C(=O)O)nn4)(C2)C3)s1.[Lu+3] [Compound 109.4]
Human CA-IX; [1]
  Kd: < 1 nM
Human CA-XII; [2]
  Kd: 2.5 to 10 nM

## NS(=O)(=O)c1nnc(NC(=O)C23CC(c4cn(CCNC(=O)[C@@H]5CN(C(=O)CN6CCN(CC(=O)O)CCN(CC(=O)O)CCN(CC(=O)O)CC6)CCN5C(=O)C[C@H](NC(=O)C[C@H](NC(=O)CCc5ccc(O)cc5)C(=O)O)C(=O)O)nn4)(C2)C3)s1.[Lu+3] [Compound 109.5]
Human CA-IX; [1]
  Kd: 1 to 2.5 nM
Human CA-XII; [2]
  Kd: 2.5 to 10 nM

## NS(=O)(=O)c1nnc(NC(=O)C23CC(c4cn(CCNC(=O)[C@@H]5CN(C(=O)CN6CCN(CC(=O)O)CCN(CC(=O)O)CCN(CC(=O)O)CC6)CCN5C(=O)C[C@H](NC(=O)C[C@H](NC(=O)c5cc(C(F)(F)F)[nH]n5)C(=O)O)C(=O)O)nn4)(C2)C3)s1.[Lu+3] [Compound 109.6]
Human CA-IX; [1]
  Kd: < 1 nM
Human CA-XII; [2]
  Kd: 2.5 to 10 nM

## NS(=O)(=O)c1nnc(NC(=O)C23CC(c4cn(CCNC(=O)[C@@H]5CN(C(=O)CN6CCN(CC(=O)O)CCN(CC(=O)O)CCN(CC(=O)O)CC6)CCN5C(=O)C[C@H](NC(=O)C[C@H](NC(=O)c5n[nH]c6ccccc56)C(=O)O)C(=O)O)nn4)(C2)C3)s1.[Lu+3] [Compound 109.7]
Human CA-IX; [1]
  Kd: < 1 nM
Human CA-XII; [2]
  Kd: 2.5 to 10 nM

## NS(=O)(=O)c1nnc(NC(=O)C23CC(c4cn(CCNC(=O)[C@@H]5CN(C(=O)CN6CCN(CC(=O)O)CCN(CC(=O)O)CCN(CC(=O)O)CC6)CCN5C(=O)C[C@H](NC(=O)C[C@H](NC(=O)c5coc(C6CC6)n5)C(=O)O)C(=O)O)nn4)(C2)C3)s1.[Lu+3] [Compound 109.8]
Human CA-IX; [1]
  Kd: 1 to 2.5 nM
Human CA-XII; [2]
  Kd: 2.5 to 10 nM

## NS(=O)(=O)c1nnc(NC(=O)C23CC(c4cn(CCNC(=O)[C@@H]5CN(C(=O)CN6CCN(CC(=O)O)CCN(CC(=O)O)CCN(CC(=O)O)CC6)CCN5C(=O)C[C@H](NC(=O)C[C@H](NC(=O)CCC56CCC(CC5)C6)C(=O)O)C(=O)O)nn4)(C2)C3)s1.[Lu+3] [Compound 109.9]
Human CA-IX; [1]
  Kd: < 1 nM
Human CA-XII; [2]
  Kd: 1 to 2.5 nM

## NS(=O)(=O)c1nnc(NC(=O)C23CC(c4cn(CCNC(=O)[C@@H]5CN(C(=O)CN6CCN(CC(=O)O)CCN(CC(=O)O)CCN(CC(=O)O)CC6)CCN5C(=O)C[C@H](NC(=O)C[C@H](NC(=O)Cc5n[nH]c6ccccc56)C(=O)O)C(=O)O)nn4)(C2)C3)s1.[Lu+3] [Compound 109.10]
Human CA-IX; [1]
  Kd: < 1 nM
Human CA-XII; [2]
  Kd: 2.5 to 10 nM

## NS(=O)(=O)c1nnc(NC(=O)C23CC(c4cn(CCNC(=O)[C@@H]5CN(C(=O)CN6CCN(CC(=O)O)CCN(CC(=O)O)CCN(CC(=O)O)CC6)CCN5C(=O)C[C@H](NC(=O)C[C@H](NC(=O)Cc5n[nH]c6ccc(F)cc56)C(=O)O)C(=O)O)nn4)(C2)C3)s1.[Lu+3] [Compound 109.11]
Human CA-IX; [1]
  Kd: < 1 nM
Human CA-XII; [2]
  Kd: 2.5 to 10 nM

## NS(=O)(=O)c1nnc(NC(=O)C23CC(c4cn(CCNC(=O)[C@@H]5CN(C(=O)CN6CCN(CC(=O)O)CCN(CC(=O)O)CCN(CC(=O)O)CC6)CCN5C(=O)C[C@H](NC(=O)C[C@H](NC(=O)c5ccc(C6CC6)nc5)C(=O)O)C(=O)O)nn4)(C2)C3)s1.[Lu+3] [Compound 109.12]
Human CA-IX; [1]
  Kd: 1 to 2.5 nM
Human CA-XII; [2]
  Kd: 2.5 to 10 nM
